Test results taken from patent EP2271651B1, “ISOTHERMAL PROCESS FOR PHOSPHOROMONOCHLORIDITE SYNTHESIS” (Dow Global Technologies LLC, priority 2008, dated 2009).
Like-named read-outs stand apart in the source and are kept apart here.

Key:
[1] = cited from earlier work; for HCl solubility: total pressure of 760 mm Hg (101 kPa)
[2] = Solubility of the aromatic diol in organic solvent (equilibrium solubility method); format: physicochemical; conditions: based on the weight of the solution
Source text: The solubility of the aromatic diol in the organic solvent can be measured by using known procedures. For example, the solubility of the aromatic diol in the organic solvent at a specific temperature can be determined by an equilibrium solubility method, which employs a saturated solution of the aromatic diol, obtained by stirring an excess amount of the aromatic diol in the organic solvent at the specific temperature for a sufficient period of time until equilibrium is achieved. Thereafter, the resulting liquid phase saturated solution, the resulting solid phase, or both liquid and solid phases are analyzed by any conventional analytical method to arrive at the solubility of the aromatic diol in the organic solvent.
In this first embodiment, generally, the aromatic diol has a low solubility in the first organic solvent. […] Accordingly, this embodiment generally requires a) a large quantity of the first organic solvent to solubilize essentially all of the aromatic diol, and/or b) preparation and maintenance of the feed solution at an elevated temperature to increase and maintain solubility of the diol in the feed solution. […]

Row | SMILES | HCl solubility ([1]; At 20°C) [Mol/mol organic solvent] | HCl solubility ([1]; At 10°C) [Mol/mol organic solvent] | also measured
1 | Clc1ccccc1 [Chlorobenzene] | 0.033 | – | –
2 | C1CCOC1 [Tetrahydrofuran] | – | – | hydrogen chloride absorbed/dissolved by one mole of solvent ([1]; at 10°C and a total pressure of 760 mm Hg (101 kPa)): 1.38 mol
3 | Cc1ccc(C)cc1 [p-Xylene] | 0.064 | 0.08 | –
4 | Oc1ccccc1-c1ccccc1O [2,2'-biphenol] | – | – | solubility in toluene ([2]; at 19°C): 2.7 percent by weight; solubility in toluene ([2]; at 40°C): 7.3 percent by weight
5 | Cc1cccc(C)c1 [m-Xylene] | 0.071 | – | –
6 | CCCCCCC [n-Heptane] | 0.015 | 0.02 | –
7 | CCCCCCCCCC [n-Decane] | – | 0.028 | –
